In patent US20260285850A1, “SUBSTITUTED OXAZOLIDINONES AND IMIDAZOLINONES AS HERBICIDES” (FMC CORPORATION, priority 2023, published 2026):

What was measured:
Format in all cases: in vivo
[1] = test system: ragweed (common ragweed, Ambrosia artemisiifolia); assay: Test A preemergence soil spray, visual injury rating 0-100; settings: 10 days
Procedure, shortened: (§1)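 Rating: visual, day 10, untreated plants as reference, 0 no effect to 100 full control. Plants were in loam-sand and were treated either preemergence via directed soil spray or postemergence at the one- to two-leaf stage.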

[2] = test system: wheat (Triticum aestivum); assay: as above; settings: 10 days
Procedure, shortened: as §1

[3] = test system: soybean (Glycine max); assay: as above; settings: 10 days
Procedure, shortened: as §1

[4] = test system: palmer (palmer amaranth, palmer pigweed, Amaranthus palmeri); assay: as above; settings: 10 days
Procedure, shortened: as §1

[5] = test system: oat, wild (wild oat, Avena fatua); assay: as above; settings: 10 days
Procedure, shortened: as §1

[6] = test system: kochia (Bassia scoparia); assay: as above; settings: 10 days
Procedure, shortened: as §1

[7] = test system: ryegrass, Italian (italian ryegrass, Lolium multiflorum); assay: as above; settings: 10 days
Procedure, shortened: as §1

[8] = test system: barnyardgrass (Echinochloa crus-galli); assay: as above; settings: 10 days
Procedure, shortened: as §1

[9] = test system: corn (Zea mays); assay: as above; settings: 10 days
Procedure, shortened: as §1

[10] = test system: blackgrass (Alopecurus myosuroides); assay: as above; settings: 10 days
Procedure, shortened: as §1

[11] = test system: green foxtail (Setaria viridis); assay: as above; settings: 10 days
Procedure, shortened: as §1

[12] = test system: sedge, umbrella (small-flower umbrella sedge, Cyperus difformis); assay: Test B flooded paddy test, visual plant response rating 0-100; settings: 250 g ai/ha, Flood, applied to paddy water, evaluated after 13 days
Procedure, shortened: (§2)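 Greenhouse, 13 d. Seedlings at 2-leaf stage, pots flooded to 3 cm, compound delivered into floodwater, water level held constant. Evaluated visually relative to controls.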

[13] = test system: rice (Oryza sativa); assay: as above; settings: 250 g ai/ha, Flood, applied to paddy water, evaluated after 13 days
Procedure, shortened: as §2

[14] = test system: barnyardgrass (Echinochloa crusgalli); assay: as above; settings: 250 g ai/ha, Flood, applied to paddy water, evaluated after 13 days
Procedure, shortened: as §2

[15] = test system: ducksalad (Heteranthera limosa); assay: as above; settings: 250 g ai/ha, Flood, applied to paddy water, evaluated after 13 days
Procedure, shortened: as §2

[16] = test system: ragweed (common ragweed, Ambrosia artemisiifolia); assay: Test A postemergence application, visual injury rating 0-100
Procedure, shortened: as §1

[17] = test system: wheat (Triticum aestivum); assay: as above
Procedure, shortened: as §1

[18] = test system: soybean (Glycine max); assay: as above
Procedure, shortened: as §1

[19] = test system: palmer (palmer amaranth, palmer pigweed, Amaranthus palmeri); assay: as above
Procedure, shortened: as §1

[20] = test system: oat, wild (wild oat, Avena fatua); assay: as above
Procedure, shortened: as §1

[21] = test system: kochia (Bassia scoparia); assay: as above
Procedure, shortened: as §1

[22] = test system: ryegrass, Italian (italian ryegrass, Lolium multiflorum); assay: as above
Procedure, shortened: as §1

[23] = test system: barnyardgrass (Echinochloa crus-galli); assay: as above
Procedure, shortened: as §1

[24] = test system: horseweed (Erigeron canadensis); assay: as above
Procedure, shortened: as §1

[25] = test system: corn (Zea mays); assay: as above
Procedure, shortened: as §1

[26] = test system: blackgrass (Alopecurus myosuroides); assay: as above
Procedure, shortened: as §1

[27] = test system: green foxtail (Setaria viridis); assay: as above
Procedure, shortened: as §1

[28] = 62 g ai/ha, 0 = no effect, 100 = complete control
[29] = 62 g ai/ha, postemergence, 10 days, 0 = no effect, 100 = complete control
[30] = Postemergence, 16 g ai/ha, greenhouse 10 days, 0 no effect, 100 complete control

## CC(C)OC(=O)C1=CCC(NC(=O)C2(C)CN(c3cc(Cl)cc(Cl)c3)C(=O)O2)C1 (centres unmarked) [Compound 106]
[1]; 16 g ai/ha, 0 to 100 scale
  Ragweed plant response rating: 0
[1]; [28]
  Ragweed plant response rating (0-100): 0
[2]; 16 g ai/ha, 0 to 100 scale
  Wheat plant response rating: 0
[2]; [28]
  Wheat plant response rating (0-100): 0
[3]; 16 g ai/ha, 0 to 100 scale
  Soybean plant response rating: 0
[3]; [28]
  Soybean plant response rating (0-100): 0
[4]; 16 g ai/ha, 0 to 100 scale
  Pigweed, Palmer plant response rating: 0
[4]; [28]
  Pigweed, Palmer plant response rating (0-100): 0
[5]; 16 g ai/ha, 0 to 100 scale
  Oat, Wild plant response rating: 0
[5]; [28]
  Oat, Wild plant response rating (0-100): 0
[6]; 16 g ai/ha, 0 to 100 scale
  Kochia plant response rating: 0
[6]; [28]
  Kochia plant response rating (0-100): 0
[7]; 16 g ai/ha, 0 to 100 scale
  Ryegrass, Italian plant response rating: 0
[7]; [28]
  Ryegrass, Italian plant response rating (0-100): 0
[8]; 16 g ai/ha, 0 to 100 scale
  Barnyardgrass plant response rating: 0
[8]; [28]
  Barnyardgrass plant response rating (0-100): 0
[9]; 16 g ai/ha, 0 to 100 scale
  Corn plant response rating: 0
[9]; [28]
  Corn plant response rating (0-100): 0
[10]; 16 g ai/ha, 0 to 100 scale
  Blackgrass plant response rating: 0
[10]; [28]
  Blackgrass plant response rating (0-100): 0
[11]; 16 g ai/ha, 0 to 100 scale
  Foxtail, Green plant response rating: 0
[11]; [28]
  Foxtail, Green plant response rating (0-100): 0
[12]
  Plant response rating, Sedge, Umbrella (0 to 100 scale, 0 is no effect and 100 is complete control): 98
[13]
  Plant response rating, Rice (0 to 100 scale, 0 is no effect and 100 is complete control): 10
[14]
  Plant response rating, Barnyardgrass (0 to 100 scale, 0 is no effect and 100 is complete control): 65
[15]
  Plant response rating, Ducksalad (0 to 100 scale, 0 is no effect and 100 is complete control): 85
[16]; [29]
  Ragweed plant response rating (0-100): 0
[16]; [30]
  Ragweed plant response rating (0 to 100 scale): 0
[17]; [29]
  Wheat plant response rating (0-100): 0
[17]; [30]
  Wheat plant response rating (0 to 100 scale): 0
[18]; [29]
  Soybean plant response rating (0-100): 0
[18]; [30]
  Soybean plant response rating (0 to 100 scale): 0
[19]; [29]
  Pigweed, Palmer plant response rating (0-100): 0
[19]; [30]
  Pigweed, Palmer plant response rating (0 to 100 scale): 0
[20]; [29]
  Oat, Wild plant response rating (0-100): 0
[20]; [30]
  Oat, Wild plant response rating (0 to 100 scale): 0
[21]; [29]
  Kochia plant response rating (0-100): 0
[21]; [30]
  Kochia plant response rating (0 to 100 scale): 0
[22]; [29]
  Ryegrass, Italian plant response rating (0-100): 0
[22]; [30]
  Ryegrass, Italian plant response rating (0 to 100 scale): 0
[23]; [29]
  Barnyardgrass plant response rating (0-100): 0
[23]; [30]
  Barnyardgrass plant response rating (0 to 100 scale): 0
[24]; [29]
  Horseweed plant response rating (0-100): 0
[24]; [30]
  Horseweed plant response rating (0 to 100 scale): 0
[25]; [29]
  Corn plant response rating (0-100): 0
[25]; [30]
  Corn plant response rating (0 to 100 scale): 0
[26]; [29]
  Blackgrass plant response rating (0-100): 0
[26]; [30]
  Blackgrass plant response rating (0 to 100 scale): 0
[27]; [29]
  Foxtail, Green plant response rating (0-100): 0
[27]; [30]
  Foxtail, Green plant response rating (0 to 100 scale): 0
